Experimental findings from patent US11679107B2 (Eisai R&D Management Co., Ltd., priority 2018, dated 2023) are described below.

The target of one experiment is T1, SF3b complexes (Homo sapiens, UniProt O75533+Q7RTV0).
T1 construct: endogenous in cells; host or cells: Nuclear extracts; A HeLa S3 extract preparation is described for the in vitro splicing assay
Briefly: Scintillation proximity assay (SPA) with [3H]-labelled pladienolide probe. Format: binding. The note with it: SF3B1 (WT); geometric mean; read-out: SPA-ATS GMean IC50 (nM) SF3B1 (WT). The procedure, abridged: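 SF3b complexes captured from nuclear extracts on anti-SF3B1 antibody SPA beads; test compounds pre-incubated 30 min before 2.5 nM [3H]-pladienolide probe added, then 30 min incubation. Bound probe read by scintillation; values from non-linear regression of concentration–response curves.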

For experiment [1], the system named is NCI-H1568 cells (high MCL1). As to the kind of experiment: Cell proliferation and viability, CellTiter-Glo, 72 hours. The note with it: 72 h; for GI50: NCI-H1568, read-out: CTGlo-ATS GMean GI50 (nM) 72 h NCIH1568.1, geometric mean. It is filed as cell-based. In a few lines:
(§1)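 RPMI-1640/10% FBS (Panc: + insulin, FBS 15%); 11-pt half-log dose, ~10 μM-100 pM, 0.1% DMSO; 37° C, 5% CO2; ATP luminescence read; % inhibition vs T0 and vehicle, −100% cidal to 100% uninhibited growth.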
(In general: Cellular ATP, detected with luciferase, serves as a proxy for viable cell number.)

Experiment [2] deals with Panc 05.04 cells (SF3b K700E mutant). Described as above. It is filed as cell-based. Conditions: 72 h; for GI50: Panc 05.04, read-out: CTGlo-ATS GMean GI50 (nM) 72 h PANC0504.1, geometric mean. The procedure, abridged: as §1
Experiment [3] concerns Ad2 variant pre-mRNAs spliced in HeLa S3 nuclear extracts. As to the kind of experiment: In vitro splicing assay (IVS), RT-qPCR of spliced product. Format: biochemical. The note with it: for IC50: geometric mean. The procedure, abridged:
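Read-out is one-step TaqMan RT-qPCR of spliced Ad2 mRNA with Ftz as reference, normalized to DMSO and fit by non-linear regression. Reactions held HeLa S3 nuclear extract, 2 ng Ad2-derived pre-mRNA and test compound, with 15 min preincubation. Splicing was started with ATP-containing activation buffer and run 90 min at 30 °C.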
A general note: Real-time PCR tracks product formation cycle by cycle.

Where [4] appears, read: NCIH1568.1 cells, −100% cidal, 0% static, 100% maximal growth.
[5] abbreviates: PANC0504.1 cells, −100% cidal, 0% static, 100% maximal growth.
[6] abbreviates: Ad2.1 pre-mRNA substrate, read-out: qPCR-IVS-ATS GMean IC50 (nM) Ad2.1.
Where [7] appears, read: Ad2.2 pre-mRNA substrate, read-out: qPCR-IVS-ATS GMean IC50 (nM) Ad2.2.

Structures are written as SMILES. Like-named read-outs stand apart in the source and are kept apart here.

In general, IC50 refers to the point on the concentration scale where inhibition reaches its midpoint. What is called GI50 is the concentration that inhibits growth by half. Turning to `C/C(=C\c1cc(F)cc(N2CCN(S(C)(=O)=O)CC2)c1)[C@H]1OC(=O)C[C@H](O)CC[C@H](C)[C@@H](OC(=O)N2CCN(C)CC2)/C=C/[C@@H]1C` [Compound 58], the IC50 at SF3b complexes turned out to be 6.54 nM; in experiment [3] (setting [6]) it was 30.1 nM; in experiment [3] (setting [7]) it was 22 nM. Further, the GI50 in experiment [1] (NCIH1568.1 cells) worked out at 7 nM; in experiment [2] (PANC0504.1 cells) it was 6.97 nM. Also, the “CTGlo-ATS Mean MinResponse % 72 h NCIH1568.1” value in experiment [1] (setting [4]) is −70.067%. Also, in experiment [2] (setting [5]), the “CTGlo-ATS Mean MinResponse % 72 h PANC0504.1” value is recorded as −91.132%.

For `C/C(=C\c1cc(Cl)cc(Cl)c1)[C@H]1OC(=O)C[C@H](O)CC[C@H](C)[C@@H](OC(=O)N2CCN(C)CC2)/C=C/[C@@H]1C` [Compound 48], the IC50 was 11.3 nM at SF3b complexes, greater than 25000 nM in experiment [3] (setting [6]) and 188 nM in experiment [3] (setting [7]). In addition, the GI50 in experiment [1] (NCIH1568.1 cells) came to 121 nM; in experiment [2] (PANC0504.1 cells) it was 95.2 nM. In experiment [1] (setting [4]), the “CTGlo-ATS Mean MinResponse % 72 h NCIH1568.1” value is on record as −38.837%. Further, the “CTGlo-ATS Mean MinResponse % 72 h PANC0504.1” value in experiment [2] (setting [5]) was −89.415%.

With `C/C(=C\c1cccc(N2CCN(CCO)CC2)c1)[C@H]1OC(=O)C[C@H](O)CC[C@H](C)[C@@H](OC(=O)N2CCC(N3CCCCC3)CC2)/C=C/[C@@H]1C` [Compound 263, [(2S,3S,4E,6R,7S,10R)-10-hydroxy-2-[(E)-1-[3-[4-(2-hydroxyethyl)piperazin-1-yl]phenyl]prop-1-en-2-yl]-3,7-dimethyl-12-oxo-1-oxacyclododec-4-en-6-yl] 4-piperidin-1-ylpiperidine-1-carboxylate], the concentration for half-maximal inhibition (IC50) on SF3b complexes stood at 37.7 nM; in experiment [3] (setting [6]), 93.6 nM; in experiment [3] (setting [7]) it was 25.5 nM. In experiment [1] (NCIH1568.1, -100% = cidal, 0% = static, 100% = uninhibited growth), the “CTGlo-ATS Mean MinResponse % 72 h NCIH1568.1” value is on record as −67.601%. Moreover, the GI50 in experiment [1] (NCIH1568.1) worked out at 102 nM; in experiment [2] (PANC0504.1), 64.5 nM. Also, in experiment [2] (PANC0504.1, -100% = cidal, 0% = static, 100% = uninhibited growth), the “CTGlo-ATS Mean MinResponse % 72 h PANC0504.1” value is −88.783%. The “Ratio Ad2.1/2.2” value in experiment [3] (ratio of IVS IC50 Ad2.1 to Ad2.2) is 3.677.

`C/C(=C\c1cnn(C2CCN(C)CC2)c1)[C@H]1OC(=O)C[C@H](O)CC[C@H](C)[C@@H](OC(=O)N2CCN(C)CC2)/C=C/[C@@H]1C` [Compound 106]: the figures for the IC50 (at SF3b complexes; in experiment [3] (setting [6]); in experiment [3] (setting [7])) were 146 nM, 21300 nM and 556 nM, respectively. Besides, the figures for the GI50 in experiment [1] (NCIH1568.1 cells) and in experiment [2] (PANC0504.1 cells) were 9020 nM and 1950 nM, respectively. In addition, the “CTGlo-ATS Mean MinResponse % 72 h NCIH1568.1” value in experiment [1] (setting [4]) was 49.516%. Also, the “CTGlo-ATS Mean MinResponse % 72 h PANC0504.1” value in experiment [2] (setting [5]) was 25.144%.

Take `C/C(=C\c1cc(F)cc(N2CCOCC2)c1)[C@H]1OC(=O)C[C@H](O)CC[C@H](C)[C@@H](OC(=O)N2CCN(C(C)(C)C)CC2)/C=C/[C@@H]1C` [Compound 25]: the results for the concentration for half-maximal inhibition (IC50) (at SF3b complexes; in experiment [3] (setting [6]); in experiment [3] (setting [7])) were 4.94 nM, 430 nM and 46.4 nM, respectively. In addition, the GI50 in experiment [1] (NCIH1568.1 cells) was found to be 20.6 nM; in experiment [2] (PANC0504.1 cells), 20.5 nM. Besides, the “CTGlo-ATS Mean MinResponse % 72 h NCIH1568.1” value in experiment [1] (setting [4]) is listed as −49.158%. In addition, in experiment [2] (setting [5]), the “CTGlo-ATS Mean MinResponse % 72 h PANC0504.1” value is −88.378%.

Regarding `C/C(=C\c1ccc(S(=O)(=O)NC2CCCC2)cc1F)[C@H]1OC(=O)C[C@H](O)CC[C@H](C)[C@@H](OC(=O)N2CCN(C)CC2)/C=C/[C@@H]1C` [Compound 57], the IC50 at SF3b complexes was 9.16 nM; in experiment [3] (setting [6]), greater than 25000 nM; in experiment [3] (setting [7]), 228 nM. The GI50 in experiment [1] (NCIH1568.1 cells) was 41.3 nM; in experiment [2] (PANC0504.1 cells) it was 49.7 nM. The “CTGlo-ATS Mean MinResponse % 72 h NCIH1568.1” value in experiment [1] (setting [4]) is recorded as −47.783%. Besides, the “CTGlo-ATS Mean MinResponse % 72 h PANC0504.1” value in experiment [2] (setting [5]) is given as −71.380%.
